From patent US12699084B2, “Method and means for diagnosing a human sepsis” (Julius-Maximilans-Universität Würzburg, priority 2019, dated 2026)
Where two headings read alike, the source gives them in different places.

Tests used:
Type in all cases: cell-based, human
[1] = test system: platelets of Covid-19 patients
[2] = test system: platelets of sepsis patients; assay: Platelet reactivity by flow cytometry in whole blood (PAC-1 binding, CD62P exposure); details: sepsis patients vs healthy controls, day of ICU admission; CRP-XL 0.01 μg/mL, convulxin 0.01 μg/mL, ADP 5 μM
Description: Platelet reactivity assays are shown at the following time points: I: admission day, II: day 5-7 and III: day of ICU discharge. (S)=sepsis patient; (HC)=healthy control. (A-H) Platelet integrin activation (A, C, E, G) and P-selectin exposure (B, D, F, H) were measured upon stimulation with CRP-XL [0.01 μg/mL](A-D), Convulxin [0.01 μg/ml] (E, F) and ADP [5 μM] (G, H) in whole blood by flow cytometry. […] (I-N) Maximum aggregation is depicted upon stimulation with CRP-XL [0.1 μg/mL] (I, J) rhodocytin [1 nM] (K, L) and TRAP-6 [10 μM] (M, N). […] Graphs show median±IQR. Differences were analyzed by Kruskal-Wallis test (A-N). n.s. non-significant, *p>0.05, **p>0.01, ***p>0.001, ****p>0.0001
Platelet reactivity of healthy controls (HC) and patients with sepsis (S) is depicted upon stimulation with CRP-XL standard dose [0.1 μg/mL in aggregometry; 0.01 μg/mL in flow cytometry] and CRP-XL high dose (CRP-XLhi) [1 μg/mL] (A-B) Platelet activation due to integrin activation indicated through PAC-1 binding (A) or P-selectin exposure (B) was assessed in whole blood by flow cytometry. (C-D) Light transmission aggregometry was performed using washed platelets [500 000 1/μL]. Samples were measured for 5 minutes. […] All graphs show median f IQR. […]

[3] = test system: platelets (GPVI-mediated platelet reactivity); assay: Platelet-antibiotic co-incubation in whole blood, P-selectin exposure by flow cytometry; details: whole blood of healthy donors, antibiotic at therapeutic peak plasma level, 2 h at 37° C., resting and CRP-XL [0.01 μg/mL] stimulated platelets
Description: Antibiotics were added to whole blood of healthy donors. Incubation was performed for 2 h at 37° C. P-selectin exposure was determined subsequently by flow cytometry on resting (A) and CRP-XL [0.01 μg/mL] stimulated platelets (B). The following drugs were used: piperacillin/tazobactam [P/T=298 μg/mL; 4 μg/mL], vancomycin [V=60 μg/mL], metronidazole [M=25 μg/mL], ciprofloxacin [Cx=4.56 μg/mL].
Whole blood was diluted 1:10 in modified HEPES-buffered Tyrode's solution (NaCl 137 mM, NaHCO312 mM, HEPES 5 mM, KCl 2.7 mM, MgCl2 1 mM, Na2HPO4 0.43 mM, glucose 0.1%, BSA 0.36%). Flow cytometry was conducted using a FACSCelesta™ flow cytometer (Becton Dickinson, Franklin Lakes, NJ, USA). Prior to reactivity measurement, platelets were incubated with respective agonists at indicated concentrations for five minutes. Staining of reticulated platelets was performed using thiazole orange (Sigma Aldrich, St. Louis, MO, USA) for 60 min at room temperature protected from light. After antibody addition samples rested for 15 min in the dark until the reaction was stopped with addition of 1.5 mL FACS-Flow sample buffer (Becton Dickinson).
As all sepsis patients received antibiotic therapy, the present inventors next evaluated whether antimicrobial drugs could reduce GPVI/CLEC-2 reactivity.

[4] = test system: washed platelets of sepsis patients; assay: Light transmission aggregometry with washed platelets; details: for aggregation at last visit, discharged patients vs patients who died: last available values (discharge/death)
Description: Platelet reactivity assays are shown at the following time points: I: admission day, II: day 5-7 and III: day of ICU discharge. (S)=sepsis patient; (HC)=healthy control. (A-H) Platelet integrin activation (A, C, E, G) and P-selectin exposure (B, D, F, H) were measured upon stimulation with CRP-XL [0.01 μg/mL](A-D), Convulxin [0.01 μg/ml] (E, F) and ADP [5 μM] (G, H) in whole blood by flow cytometry. Representative curves upon CRP-XL stimulation at time point I are shown in A and B. (I-N) Light transmission aggregometry was performed using washed platelets [500 000 1/μL]. (I-N) Maximum aggregation is depicted upon stimulation with CRP-XL [0.1 μg/mL] […] (K, L) and TRAP-6 [10 μM] (M, N). Representative curves are shown in FIG. I, K, M. […] Graphs show median±IQR. Differences were analyzed by Kruskal-Wallis test (A-N). n.s. non-significant, *p>0.05, **p>0.01, ***p>0.001, ****p>0.0001
Platelet reactivity of healthy controls (HC) and patients with sepsis (S) is depicted upon stimulation with CRP-XL standard dose [0.1 μg/mL in aggregometry; 0.01 μg/mL in flow cytometry] and CRP-XL high dose (CRP-XLhi) [1 μg/mL] (A-B) Platelet activation due to integrin activation indicated through PAC-1 binding (A) or P-selectin exposure (B) was assessed in whole blood by flow cytometry. (C-D) Light transmission aggregometry was performed using washed platelets [500 000 1/μL]. Samples were measured for 5 minutes. Representative curves are shown in C. (D-E) Platelets were lysed after 5 minutes of CRP-XL stimulation or resting conditions. Staining was performed with phospho-tyrosine antibody 4g10. 72 kDa band intensity was set in relation to a housekeeping protein in arbitrary units (AU). All graphs show median f IQR.
(A) Light transmission aggregometry was performed using washed platelets [500 000 1/μL]. Maximum aggregation is depicted upon stimulation with CRP-XL (C) [0.1 μg/mL] and TRAP-6 [5 μM](T). (B) mean platelet volume. (C) Reticulated platelets indicated as thiazole orange (TO) positive fraction were assessed by flow cytometry. (D) GPVI-ectodomain plasma-levels measured by ELISA. (E) Platelet count. (F) SOFA-Score. All graphs show median f IQR. Differences were analyzed using Kolmogorov-Smirnov test. n.s. non-significant, *p>0.05, **p>0.01,
After centrifugation of whole blood at 152 g for 20 min, platelet rich plasma (PRP) was separated and incubated in acetylsalicylic acid (ASS) for 30 min (final concentration 2 μM). Prostaglandine E1 (1 μM) and apyrase (2 U/mL) were added and platelets were washed with modified HEPES-buffered Tyrode's solution once (1000 g, 10 min). PPP was cryopreserved for further investigation. Afterwards platelet count was adjusted to 500 000 1/μL through resuspension in re-calcified Hepes buffered Tyrode's solution (CaCl2) 2 mM). Light transmission aggregometry was performed using an APACT 4S (LABiTec, Ahrensburg, Germany) aggregometer at 37° C. stirring conditions. Maximum aggregation was assessed in percent in relation to re-calcified Hepes buffered Tyrode's solution as blank. For further molecular analysis platelets were lysed through addition of ice-cold 2× lysis buffer (NaCl150 mM, HEPES 15 mM, EGTA10 mM, Triton X-100 2%, Na3VO4 2 mM, PMSF 1 mM, Aprotinin A 1 mM, Leupeptin 1 mM, Pepstatin 1 mM).

washed platelets = assay: Immunoblot of global tyrosine phosphorylation (4G10) in platelet lysates; details: 0.1 μg/mL CRP-XL or 10 nM rhodocytin
Description: Washed platelets [500 000 1/μL] of healthy controls (HC) and patients (S) were stimulated with CRP-XL (C) and rhodocytin (R). Lysis was done at the following time points: C: 5 min, R: 10 min. I: admission day, II: day 5-7 and III: day of ICU discharge. (A-C) Western Blot analysis of platelet lysates. Staining was performed with anti-phospho-tyrosine antibody 4g10. 72 kDa band intensity was set in relation to signal intensity of Syk or GAPDH in arbitrary units (AU). Representative blots are shown in figures A (time point I) and B (time point III). (D-F) Phosphorylation of signaling peptides Syk and Lat was investigated by Western blot. One representative blot is shown in D. (G-J) Phosphorylation analysis of ITIM-signaling associated phosphatases SHP-1 and SHP-2. Phospho-protein intensity was set in relation to intensity of unphosphorylated protein shown in H and J. Representative Western blots are shown in G and I. All graphs display median f IQR.
After centrifugation of whole blood at 152 g for 20 min, platelet rich plasma (PRP) was separated and incubated in acetylsalicylic acid (ASS) for 30 min (final concentration 2 μM). Prostaglandine E1 (1 μM) and apyrase (2 U/mL) were added and platelets were washed with modified HEPES-buffered Tyrode's solution once (1000 g, 10 min). […] Maximum aggregation was assessed in percent in relation to re-calcified Hepes buffered Tyrode's solution as blank. […]

Nc1ncnc2c1ncn2[C@@H]1O[C@H](COP(=O)(O)OP(=O)(O)O)[C@@H](O)[C@H]1O [ADP]
platelet reactivity upon stimulation ([1]; 19 critically-ill Covid-19 patients, 14 days at ICU): global hyporeactivity
platelet activation (PAC-1 binding, CD62P exposure) upon stimulation [2]: platelet reactivity was also highly impaired

O=C(O)c1cn(C2CC2)c2cc(N3CCNCC3)c(F)cc2c1=O [ciprofloxacin]
impact on GPVI-mediated platelet reactivity (P-selectin exposure) [3]: none of these drugs had an impact on GPVI-mediated platelet reactivity

Cc1ncc([N+](=O)[O-])n1CCO [metronidazole]
impact on GPVI-mediated platelet reactivity (P-selectin exposure) [3]: none of these drugs had an impact on GPVI-mediated platelet reactivity

CN[C@H](CC(C)C)C(=O)N[C@H]1C(=O)N[C@@H](CC(N)=O)C(=O)N[C@H]2C(=O)N[C@H]3C(=O)N[C@H](C(=O)N[C@H](C(=O)O)c4cc(O)cc(O)c4-c4cc3ccc4O)[C@H](O)c3ccc(c(Cl)c3)Oc3cc2cc(c3O[C@@H]2O[C@H](CO)[C@@H](O)[C@H](O)[C@H]2O[C@H]2C[C@](C)(N)[C@H](O)[C@H](C)O2)Oc2ccc(cc2Cl)[C@H]1O [vancomycin]
impact on GPVI-mediated platelet reactivity (P-selectin exposure) [3]: none of these drugs had an impact on GPVI-mediated platelet reactivity

TRAP-6
platelet reactivity upon stimulation [1]: global hyporeactivity
aggregation at last visit, discharged patients vs patients who died ([4]; sepsis patients): no differences
aggregation potential, mean ([4]; sepsis platelets, day of ICU admission, 10 μM TRAP-6): 34.2%
aggregation potential, minimum ([4]; sepsis platelets, day of ICU admission, 10 μM TRAP-6, every studied patient): ≥ 21.2%

piperacillin/tazobactam
impact on GPVI-mediated platelet reactivity (P-selectin exposure) [3]: none of these drugs had an impact on GPVI-mediated platelet reactivity

B1: rhodocytin: selective CLEC-2 agonist (protein)
chain 1: GLEDCDFGWSPYDQHCYQAFNEQKTWDEAEKFCRAQENGAHLASIESNGEADFVSWLISQKDELADEDYVWIGLRAQNKEQQCSSEWSDGSSVSYENLIDLHTKKCGALEKLTGFRKWVNYYCEQMHAFVCKLLPY
chain 2: DCPSGWSSYEGHCYKPFNEPKNWADAERFCKLQPKHSHLVSFQSAEEADFVVKLTRPRLKANLVWMGLSNIWHGCNWQWSDGARLNYKDWQEQSECLAFRGVHTEWLNMDCSSTCSFVCKFKA
induction of tyrosine phosphorylation (pTyr bands) (washed platelets; platelets of healthy donors): readily inducible in healthy donors
induction of tyrosine phosphorylation (pTyr bands) (washed platelets; platelets of sepsis patients): tyrosine phosphorylation was not inducible in platelets of sepsis patients
platelet aggregation upon stimulation ([4]; sepsis patients vs healthy controls, time point I, CRP-XL 0.1 μg/ml, rhodocytin 10 nM): abolished aggregation was found in 5/8 patients
aggregation at last visit, discharged patients vs patients who died ([4]; sepsis patients): no differences
maximum aggregation, recovery at discharge ([4]; sepsis patients, time point III (discharge from ICU), CRP-XL 0.1 μg/ml, rhodocytin): completely recovered

B2: convulxin (protein)
chain 1: GLHCPSDWYYYDQHCYRIFNEEMNWEDAEWFCTKQAKGAHLVSIKSAKEADFVAWMVTQNIEESFSHVSIGLRVQNKEKQCSTKWSDGSSVSYDNLLDLYITKCSLLKKETGFRKWFVASCIGKIPFVCKFPPQC
chain 2: GFCCPSHWSSYDRYCYKVFKQEMTWADAEKFCTQQHTGSHLVSFHSTEEVDFVVKMTHQSLKSTFFWIGANNIWNKCNWQWSDGTKPEYKEWHEEFECLISRTFDNQWLSAPCSDTYSFVCKFEA
platelet activation (PAC-1 binding, CD62P exposure) upon stimulation [2]: impaired platelet activation was still evident, albeit to a lesser extent compared to CRP-XL
